Patent US20260224571A1, “AZACYCLOALKANE COMPOUND AND PHARMACEUTICAL COMPOSITION, AND USE THEREOF” (Prime Gene Therapeutics Co., Ltd., priority 2023, published 2026)

Experiments:
ROCK1 = ROCK1 (Homo sapiens, UniProt Q13464); assay: ROCK1 kinase enzymatic activity (HTRF, STK2 substrate); assay type: biochemical; settings: ROCK1 kinase reacted at room temperature for 20 minutes
Source text: (§1) The kinase activity data was expressed by comparing the kinase activity of the test compound and that of the blank group (containing only DMSO), and the IC50 value was obtained by curve fitting using Prism software (GraphPad7.0).

ROCK2 = ROCK2 (Homo sapiens, UniProt O75116); assay: ROCK2 kinase enzymatic activity (HTRF, STK2 substrate); assay type: biochemical; settings: ROCK2 kinase reacted at room temperature for 30 minutes
ROCK2, sequence (O75116 whole entry): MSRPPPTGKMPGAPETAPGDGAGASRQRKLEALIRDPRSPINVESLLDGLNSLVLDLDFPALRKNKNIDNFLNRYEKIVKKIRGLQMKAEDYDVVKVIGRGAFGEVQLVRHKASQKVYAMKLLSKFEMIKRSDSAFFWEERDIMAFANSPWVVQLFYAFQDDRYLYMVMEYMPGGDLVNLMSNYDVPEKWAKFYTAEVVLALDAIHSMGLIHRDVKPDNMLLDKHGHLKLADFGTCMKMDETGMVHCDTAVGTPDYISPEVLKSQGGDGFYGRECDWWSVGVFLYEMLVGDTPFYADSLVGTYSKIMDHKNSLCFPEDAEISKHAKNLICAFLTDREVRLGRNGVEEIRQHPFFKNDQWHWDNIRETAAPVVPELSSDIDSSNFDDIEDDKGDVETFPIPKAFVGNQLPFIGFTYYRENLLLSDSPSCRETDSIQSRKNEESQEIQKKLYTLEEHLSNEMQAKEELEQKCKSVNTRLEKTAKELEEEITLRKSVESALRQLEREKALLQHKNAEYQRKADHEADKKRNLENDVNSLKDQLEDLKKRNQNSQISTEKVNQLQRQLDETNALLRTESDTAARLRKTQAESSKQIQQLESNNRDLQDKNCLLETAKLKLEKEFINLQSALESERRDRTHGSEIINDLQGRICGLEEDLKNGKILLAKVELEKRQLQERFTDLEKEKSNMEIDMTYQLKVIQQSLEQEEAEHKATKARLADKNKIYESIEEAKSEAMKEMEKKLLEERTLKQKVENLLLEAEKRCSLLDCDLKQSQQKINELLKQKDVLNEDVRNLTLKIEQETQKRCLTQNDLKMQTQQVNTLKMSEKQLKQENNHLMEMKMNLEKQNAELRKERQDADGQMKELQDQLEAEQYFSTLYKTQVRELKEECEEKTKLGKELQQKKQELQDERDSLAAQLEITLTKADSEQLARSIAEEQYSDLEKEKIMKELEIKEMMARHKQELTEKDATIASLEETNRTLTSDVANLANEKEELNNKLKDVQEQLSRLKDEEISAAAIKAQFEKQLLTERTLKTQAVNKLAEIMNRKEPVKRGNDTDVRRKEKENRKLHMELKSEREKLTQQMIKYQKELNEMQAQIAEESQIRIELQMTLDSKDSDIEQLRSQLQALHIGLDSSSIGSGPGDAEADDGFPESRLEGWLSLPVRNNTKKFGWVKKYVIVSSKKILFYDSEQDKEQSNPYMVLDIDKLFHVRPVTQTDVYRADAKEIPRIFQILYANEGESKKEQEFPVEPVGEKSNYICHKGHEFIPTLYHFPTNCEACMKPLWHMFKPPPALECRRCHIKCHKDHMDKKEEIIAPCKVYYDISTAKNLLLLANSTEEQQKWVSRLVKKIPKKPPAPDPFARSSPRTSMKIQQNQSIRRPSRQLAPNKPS
Source text: as §1

ROCK1, sequence (Q13464 whole entry): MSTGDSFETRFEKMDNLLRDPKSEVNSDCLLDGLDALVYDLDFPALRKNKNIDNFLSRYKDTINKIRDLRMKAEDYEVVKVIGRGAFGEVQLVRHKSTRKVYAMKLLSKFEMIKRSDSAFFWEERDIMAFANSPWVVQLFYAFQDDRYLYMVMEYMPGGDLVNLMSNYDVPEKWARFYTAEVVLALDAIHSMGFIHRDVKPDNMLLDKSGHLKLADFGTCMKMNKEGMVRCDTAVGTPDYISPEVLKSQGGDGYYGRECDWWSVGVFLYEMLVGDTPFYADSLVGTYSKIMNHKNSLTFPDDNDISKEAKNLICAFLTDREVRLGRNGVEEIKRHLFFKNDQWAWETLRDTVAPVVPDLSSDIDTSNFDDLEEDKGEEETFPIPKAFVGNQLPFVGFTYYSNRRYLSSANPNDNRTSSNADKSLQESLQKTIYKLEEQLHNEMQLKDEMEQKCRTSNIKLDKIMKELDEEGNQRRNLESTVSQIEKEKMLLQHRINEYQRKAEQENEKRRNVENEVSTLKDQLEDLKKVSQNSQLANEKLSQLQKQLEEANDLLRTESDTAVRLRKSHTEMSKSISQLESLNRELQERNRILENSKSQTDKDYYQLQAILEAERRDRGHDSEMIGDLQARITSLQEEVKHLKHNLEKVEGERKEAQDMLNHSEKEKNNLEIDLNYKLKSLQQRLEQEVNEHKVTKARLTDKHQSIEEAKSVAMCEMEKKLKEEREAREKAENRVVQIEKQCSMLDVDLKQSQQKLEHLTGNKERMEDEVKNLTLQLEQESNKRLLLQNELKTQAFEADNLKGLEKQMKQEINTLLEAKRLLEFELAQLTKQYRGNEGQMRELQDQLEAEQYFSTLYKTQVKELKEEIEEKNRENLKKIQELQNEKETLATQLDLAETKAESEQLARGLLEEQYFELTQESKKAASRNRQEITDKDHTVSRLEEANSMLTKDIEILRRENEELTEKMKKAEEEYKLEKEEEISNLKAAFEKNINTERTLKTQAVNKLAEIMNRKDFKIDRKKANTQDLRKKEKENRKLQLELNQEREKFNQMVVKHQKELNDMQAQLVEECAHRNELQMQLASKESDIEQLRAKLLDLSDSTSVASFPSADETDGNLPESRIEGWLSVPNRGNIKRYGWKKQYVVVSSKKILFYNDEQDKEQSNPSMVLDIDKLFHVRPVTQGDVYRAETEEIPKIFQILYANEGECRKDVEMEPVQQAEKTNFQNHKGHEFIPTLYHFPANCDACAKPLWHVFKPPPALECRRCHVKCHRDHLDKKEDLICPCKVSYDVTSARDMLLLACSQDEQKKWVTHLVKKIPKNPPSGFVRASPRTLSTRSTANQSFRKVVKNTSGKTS

COCCNS(=O)(=O)N1CC(CC#N)(n2cc(-c3ncnc4[nH]ccc34)c(N)n2)C1 [Example 48, 3-(3-amino-4-(7H-pyrrolo[2,3-d]pyrimidin-4-yl)-1H-pyrazol-1-yl)-3-(cyanomethyl)-N-(2-methoxyethyl)azetidine-1-sulfonamide]
IC50 (ROCK1): < 50 nM | IC50 (ROCK2): < 10 nM

CNS(=O)(=O)N1CC(CC#N)(n2cc(-c3ncnc4[nH]ccc34)c(N)n2)C1 [Example 49, 3-(3-amino-4-(7H-pyrrolo[2,3-d]pyrimidin-4-yl)-1H-pyrazol-1-yl)-3-(cyanomethyl)-N-methylazetidine-1-sulfonamide]
IC50 (ROCK1): < 10 nM | IC50 (ROCK2): < 10 nM

CN(C)S(=O)(=O)N1CC(CC#N)(n2cc(-c3ncnc4[nH]ccc34)c(N)n2)C1 [Example 51, 3-(3-amino-4-(7H-pyrrolo[2,3-d]pyrimidin-4-yl)-1H-pyrazol-1-yl)-3-(cyanomethyl)-N,N-dimethylazetidine-1-sulfonamide]
IC50 (ROCK1): < 10 nM | IC50 (ROCK2): < 10 nM

CN(C)CCNS(=O)(=O)N1CC(CC#N)(n2cc(-c3ncnc4[nH]ccc34)c(N)n2)C1 [Example 52, 3-(3-amino-4-(7H-pyrrolo[2,3-d]pyrimidin-4-yl)-1H-pyrazol-1-yl)-3-(cyanomethyl)-N-(2-(dimethylamino)ethyl)azetidine-1-sulfonamide]
IC50 (ROCK1): < 10 nM | IC50 (ROCK2): < 10 nM

COC(=O)CNS(=O)(=O)N1CC(CC#N)(n2cc(-c3ncnc4[nH]ccc34)c(N)n2)C1 [Example 53, methyl (3-(3-amino-4-(7H-pyrrolo[2,3-d]pyrimidin-4-yl)-1H-pyrazol-1-yl)-3-(cyanomethyl)azetidine-1-ylsulfonyl)glycinate]
IC50 (ROCK1): < 10 nM | IC50 (ROCK2): < 10 nM

N#CCC1(n2cc(-c3ncnc4[nH]ccc34)c(N)n2)CN(S(=O)(=O)NCC(=O)O)C1 [Example 54]
IC50 (ROCK1): < 50 nM | IC50 (ROCK2): < 50 nM

CCS(=O)(=O)N1CC(CC#N)(n2cc(-c3ncnc4[nH]ccc34)c(O)n2)C1 [Example 56, 2-(1-(ethylsulfonyl)-3-(3-hydroxy-4-(7H-pyrrolo[2,3-d]pyrimidin-4-yl)-1H-pyrazol-1-yl)azetidine-3-yl)acetonitrile]
IC50 (ROCK1): < 50 nM | IC50 (ROCK2): > 100 nM

CC(C)S(=O)(=O)N1CC(CC#N)(n2cc(-c3ncnc4[nH]ccc34)c(O)n2)C1 [Example 57, 2-(3-(3-hydroxy-4-(7H-pyrrolo[2,3-d]pyrimidin-4-yl)-1H-pyrazol-1-yl)-1-(isopropylsulfonyl)azetidine-3-yl)acetonitrile]
IC50 (ROCK1): < 50 nM | IC50 (ROCK2): > 100 nM

N#CCC1(n2cc(-c3ncnc4[nH]ccc34)c(O)n2)CN(S(=O)(=O)C2CC2)C1 [Example 58, 2-(1-(cyclopropylsulfonyl)-3-(3-hydroxy-4-(7H-pyrrolo[2,3-d]pyrimidin-4-yl)-1H-pyrazol-1-yl)azetidine-3-yl)acetonitrile]
IC50 (ROCK1): < 50 nM | IC50 (ROCK2): > 100 nM

COc1nn(C2(CC#N)CN(S(=O)(=O)C(C)C)C2)cc1-c1ncnc2[nH]ccc12 [Example 59, 2-(1-(isopropylsulfonyl)-3-(3-methoxy-4-(7H-pyrrolo[2,3-d]pyrimidin-4-yl)-1H-pyrazol-1-yl)azetidine-3-yl)acetonitrile]
IC50 (ROCK1): < 50 nM | IC50 (ROCK2): > 100 nM

N#CCC1(n2cc(-c3ncnc4[nH]ccc34)c(C(N)=O)n2)CN(S(=O)(=O)CC(F)(F)F)C1 [Example 60, 1-(3-(cyanomethyl)-1-((2,2,2-trifluoroethyl)sulfonyl)azetidine-3-yl)-4-(7H-pyrrolo[2,3-d]pyrimidin-4-yl)-1H-pyrazole-3-formamide]
IC50 (ROCK1): > 100 nM | IC50 (ROCK2): > 100 nM

CCS(=O)(=O)N1CC(CC#N)(n2cc(-c3ncnc4[nH]ccc34)c(C(=O)NC)n2)C1 [Example 63, 1-(3-(cyanomethyl)-1-(ethylsulfonyl)azetidine-3-yl)-N-methyl-4-(7H-pyrrolo[2,3-d]pyrimidin-4-yl)-1H-pyrazol-3-formamide]
IC50 (ROCK1): > 100 nM | IC50 (ROCK2): > 100 nM

CNC(=O)c1nn(C2(CC#N)CN(S(=O)(=O)C(C)C)C2)cc1-c1ncnc2[nH]ccc12 [Example 64, 1-(3-(cyanomethyl)-1-(isopropylsulfonyl)azetidine-3-yl)-N-methyl-4-(7H-pyrrolo[2,3-d]pyrimidin-4-yl)-1H-pyrazol-3-formamide]
IC50 (ROCK1): > 100 nM | IC50 (ROCK2): > 100 nM

CNC(=O)c1nn(C2(CC#N)CN(S(=O)(=O)C3CC3)C2)cc1-c1ncnc2[nH]ccc12 [Example 65, 1-(3-(cyanomethyl)-1-(cyclopropylsulfonyl)azetidine-3-yl)-N-methyl-4-(7H-pyrrolo[2,3-d]pyrimidin-4-yl)-1H-pyrazol-3-formamide]
IC50 (ROCK1): > 100 nM | IC50 (ROCK2): > 100 nM

CCS(=O)(=O)N1CC(CC#N)(n2cc(-c3ncnc4[nH]ccc34)c(C(N)=O)n2)C1 [Example 66, 1-(3-(cyanomethyl)-1-(ethylsulfonyl)azetidine-3-yl)-4-(7H-pyrrolo[2,3-d]pyrimidin-4-yl)-1H-pyrazol-3-formamide]
IC50 (ROCK1): > 100 nM | IC50 (ROCK2): > 100 nM

N#CCC1(n2cc(-c3ncnc4[nH]ccc34)c(C(N)=O)n2)CN(S(=O)(=O)C2CC2)C1 [Example 67, 1-(3-(cyanomethyl)-1-(cyclopropylsulfonyl)azetidine-3-yl)-4-(7H-pyrrolo[2,3-d]pyrimidin-4-yl)-1H-pyrazol-3-formamide]
IC50 (ROCK1): > 100 nM | IC50 (ROCK2): > 100 nM

CC(C)S(=O)(=O)N1CC(CC#N)(n2cc(-c3ncnc4[nH]ccc34)c(C(N)=O)n2)C1 [Example 68, 1-(3-(cyanomethyl)-1-(isopropylsulfonyl)azetidine-3-yl)-4-(7H-pyrrolo[2,3-d]pyrimidin-4-yl)-1H-pyrazol-3-formamide]
IC50 (ROCK1): > 100 nM | IC50 (ROCK2): > 100 nM

CS(=O)(=O)N1CC(CC#N)(n2cc(-c3ncnc(NCCO)n3)c(N)n2)C1 [Example 70, 2-(3-(3-amino-4-(4-((2-hydroxyethyl)amino)-1,3,5-triazin-2-yl)-1H-pyrazol-1-yl)-1-(methylsulfonyl)azetidine-3-yl)acetonitrile]
IC50 (ROCK1): > 100 nM | IC50 (ROCK2): > 100 nM

CN1CCC(Nc2ncnc(-c3cn(C4(CC#N)CN(S(C)(=O)=O)C4)nc3N)n2)CC1 [Example 71, 2-(3-(3-amino-4-(4-((1-methylpiperidin-4-yl)amino)-1,3,5-triazin-2-yl)-1H-pyrazol-1-yl)-1-(methylsulfonyl)azetidine-3-yl)acetonitrile]
IC50 (ROCK1): > 100 nM | IC50 (ROCK2): > 100 nM

CS(=O)(=O)N1CC(CC#N)(n2cc(-c3ncnc(NC4CCOCC4)n3)c(N)n2)C1 [Example 72, 2-(3-(3-amino-4-(4-((tetrahydro-2H-pyran-4-yl)amino)-1,3,5-triazin-2-yl)-1H-pyrazol-1-yl)-1-(methylsulfonyl)azetidine-3-yl)acetonitrile]
IC50 (ROCK1): > 100 nM | IC50 (ROCK2): > 100 nM

CS(=O)(=O)N1CC(CC#N)(n2cc(-c3ncnc(NCC4CCOCC4)n3)c(N)n2)C1 [Example 73]
IC50 (ROCK1): > 100 nM | IC50 (ROCK2): > 100 nM

CS(=O)(=O)N1CC(CC#N)(n2cc(-c3cc(NCCO)ncn3)c(N)n2)C1 [Example 74, 2-(3-(3-amino-4-(6-((2-hydroxyethyl)amino)pyrimidin-4-yl)-1H-pyrazol-1-yl)-1-(methylsulfonyl)azetidine-3-yl)acetonitrile]
IC50 (ROCK1): > 100 nM | IC50 (ROCK2): > 100 nM

CS(=O)(=O)N1CC(CC#N)(n2cc(-c3cc(NC4CCOCC4)ncn3)c(N)n2)C1 [Example 75, 2-(3-(3-amino-4-(6-((tetrahydro-2H-pyran-4-yl)amino)pyrimidin-4-yl)-1H-pyrazol-1-yl)-1-(methylsulfonyl)azetidine-3-yl)acetonitrile]
IC50 (ROCK1): > 100 nM | IC50 (ROCK2): > 100 nM

CS(=O)(=O)N1CC(CC#N)(n2cc(-c3cc(NCC4CCOCC4)ncn3)c(N)n2)C1 [Example 76, 2-(3-(3-amino-4-(6-((tetrahydro-2H-pyran-4-yl)methyl)amino)pyrimidin-4-yl-1H-pyrazol-1-yl)-1-(methylsulfonyl)azetidine-3-yl)acetonitrile]
IC50 (ROCK1): > 100 nM | IC50 (ROCK2): > 100 nM

CNc1cc(-c2cn(C3(CC#N)CN(S(C)(=O)=O)C3)nc2N)ncn1 [Example 77, 2-(3-(3-amino-4-(6-(methylamino)pyrimidin-4-yl)-1H-pyrazol-1-yl)-1-(methylsulfonyl)azetidine-3-yl)acetonitrile]
IC50 (ROCK1): > 100 nM | IC50 (ROCK2): > 100 nM

CS(=O)(=O)N1CC(CC#N)(n2cc(-c3ccnc(NCCO)n3)c(N)n2)C1 [Example 78]
IC50 (ROCK1): > 100 nM | IC50 (ROCK2): > 100 nM

CS(=O)(=O)N1CC(CC#N)(n2cc(-c3ccnc(NCc4ccccc4)n3)c(N)n2)C1 [Example 79, 2-(3-(3-amino-4-(2-(benzylamino)pyrimidin-4-yl)-1H-pyrazol-1-yl)-1-(methylsulfonyl)azetidine-3-yl)acetonitrile]
IC50 (ROCK1): > 100 nM | IC50 (ROCK2): > 100 nM

CCS(=O)(=O)N1CC(CC#N)(n2cc(-c3cc(-c4cnn(C)c4)nn4ccnc34)c(N)n2)C1 [Example 80]
IC50 (ROCK1): > 100 nM | IC50 (ROCK2): > 100 nM

CCS(=O)(=O)N1CC(CC#N)(n2cc(-c3cc(-c4cnn(C)c4)cn4ncnc34)c(N)n2)C1 [Example 81]
IC50 (ROCK1): > 100 nM | IC50 (ROCK2): > 100 nM

CCS(=O)(=O)N1CC(CC#N)(n2cc(-c3cc(Cl)cn4ncnc34)c(N)n2)C1 [Example 83, 2-(3-(3-amino-4-(6-chloro-[1,2,4]triazolo[1,5-a]pyridin-8-yl)-1H-pyrazol-1-yl)-1-(ethylsulfonyl)azetidine-3-yl)acetonitrile]
IC50 (ROCK1): > 100 nM | IC50 (ROCK2): > 100 nM

CCS(=O)(=O)N1CC(CC#N)(n2cc(-c3cc(Cl)nc4ccnn34)c(N)n2)C1 [Example 84, 2-(3-(3-amino-4-(5-chloropyrazolo[1,5-a]pyrimidin-7-yl)-1H-pyrazol-1-yl)-1-(ethylsulfonyl)azetidine-3-yl)acetonitrile]
IC50 (ROCK1): > 100 nM | IC50 (ROCK2): > 100 nM

CCS(=O)(=O)N1CC(CC#N)(n2cc(-c3cc(NC)nc4ccnn34)c(N)n2)C1 [Example 85, 2-(3-(3-amino-4-(5-(methylamino)pyrazolo[1,5-a]pyrimidin-7-yl)-1H-pyrazol-1-yl)-1-(ethylsulfonyl)azetidine-3-yl)acetonitrile]
IC50 (ROCK1): > 100 nM | IC50 (ROCK2): > 100 nM
